Source: the NIST ThermoML archive (doi:10.1016/j.jct.2016.06.016)

Experiment: xn = mol fraction of the nth substance listed
Details: 100 kPa, Liquid; for viscosity: Concentric cylinders viscometry; for mass density: Vibrating tube method

CCOC(=O)CCC(=O)OCC [diethyl butanedioate] + CCCCCCO
Details | mass density [kg/m3] | viscosity [mPa·s]
288.15 K, x1 = 0.0999 | 849.53 | 4.539
288.15 K, x1 = 0.2 | 875.7 | 3.729
288.15 K, x1 = 0.3001 | 900.45 | 3.285
288.15 K, x1 = 0.4 | 923.97 | 3.019
288.15 K, x1 = 0.4999 | 946.39 | 2.869
288.15 K, x1 = 0.6 | 967.72 | 2.789
288.15 K, x1 = 0.7002 | 988.27 | 2.788
288.15 K, x1 = 0.7999 | 1007.86 | 2.856
288.15 K, x1 = 0.9 | 1026.75 | 2.954
288.15 K, x1 = 1 | 1044.83 | 3.195
293.15 K, x1 = 0.0999 | 845.73 | 3.876
293.15 K, x1 = 0.2 | 871.67 | 3.213
293.15 K, x1 = 0.3001 | 896.23 | 2.842
293.15 K, x1 = 0.4 | 919.56 | 2.62
293.15 K, x1 = 0.4999 | 941.82 | 2.495
293.15 K, x1 = 0.6 | 963 | 2.432
293.15 K, x1 = 0.7002 | 983.42 | 2.435
293.15 K, x1 = 0.7999 | 1002.88 | 2.495
293.15 K, x1 = 0.9 | 1021.66 | 2.61
293.15 K, x1 = 1 | 1039.63 | 2.807
298.15 K, x1 = 0.0999 | 841.91 | 3.358
298.15 K, x1 = 0.2 | 867.63 | 2.817
298.15 K, x1 = 0.3001 | 891.99 | 2.508
298.15 K, x1 = 0.4 | 915.15 | 2.327
298.15 K, x1 = 0.4999 | 937.24 | 2.231
298.15 K, x1 = 0.6 | 958.28 | 2.18
298.15 K, x1 = 0.7002 | 978.57 | 2.188
298.15 K, x1 = 0.7999 | 997.91 | 2.24
298.15 K, x1 = 0.9 | 1016.57 | 2.337
298.15 K, x1 = 1 | 1034.44 | 2.491
303.15 K, x1 = 0.0999 | 838.07 | 2.932
303.15 K, x1 = 0.2 | 863.58 | 2.477
303.15 K, x1 = 0.3001 | 887.75 | 2.222
303.15 K, x1 = 0.4 | 910.73 | 2.071
303.15 K, x1 = 0.4999 | 932.67 | 1.99
303.15 K, x1 = 0.6 | 953.56 | 1.952
303.15 K, x1 = 0.7002 | 973.72 | 1.962
303.15 K, x1 = 0.7999 | 992.94 | 2.01
303.15 K, x1 = 0.9 | 1011.5 | 2.098
303.15 K, x1 = 1 | 1029.25 | 2.229
308.15 K, x1 = 0.0999 | 834.22 | 2.572
308.15 K, x1 = 0.2 | 859.52 | 2.193
308.15 K, x1 = 0.3001 | 883.49 | 1.98
308.15 K, x1 = 0.4 | 906.3 | 1.854
308.15 K, x1 = 0.4999 | 928.09 | 1.788
308.15 K, x1 = 0.6 | 948.84 | 1.759
308.15 K, x1 = 0.7002 | 968.87 | 1.77
308.15 K, x1 = 0.7999 | 987.97 | 1.816
308.15 K, x1 = 0.9 | 1006.42 | 1.893
308.15 K, x1 = 1 | 1024.08 | 2.008
313.15 K, x1 = 0.0999 | 830.34 | 2.276
313.15 K, x1 = 0.2 | 855.43 | 1.961
313.15 K, x1 = 0.3001 | 879.22 | 1.783
313.15 K, x1 = 0.4 | 901.87 | 1.679
313.15 K, x1 = 0.4999 | 923.5 | 1.626
313.15 K, x1 = 0.6 | 944.11 | 1.604
313.15 K, x1 = 0.7002 | 964.01 | 1.617
313.15 K, x1 = 0.7999 | 983 | 1.659
313.15 K, x1 = 0.9 | 1001.34 | 1.729
313.15 K, x1 = 1 | 1018.9 | 1.821
318.15 K, x1 = 0.0999 | 826.44 | 2.013
318.15 K, x1 = 0.2 | 851.33 | 1.748
318.15 K, x1 = 0.3001 | 874.93 | 1.598
318.15 K, x1 = 0.4 | 897.41 | 1.511
318.15 K, x1 = 0.4999 | 918.89 | 1.468
318.15 K, x1 = 0.6 | 939.37 | 1.452
318.15 K, x1 = 0.7002 | 959.15 | 1.467
318.15 K, x1 = 0.7999 | 978.02 | 1.506
318.15 K, x1 = 0.9 | 996.26 | 1.57
318.15 K, x1 = 1 | 1013.72 | 1.66
323.15 K, x1 = 0.0999 | 822.52 | 1.817
323.15 K, x1 = 0.2 | 847.2 | 1.584
323.15 K, x1 = 0.3001 | 870.62 | 1.458
323.15 K, x1 = 0.4 | 892.94 | 1.386
323.15 K, x1 = 0.4999 | 914.27 | 1.344
323.15 K, x1 = 0.6 | 934.62 | 1.337
323.15 K, x1 = 0.7002 | 954.28 | 1.353
323.15 K, x1 = 0.7999 | 973.05 | 1.391
323.15 K, x1 = 0.9 | 991.18 | 1.448
323.15 K, x1 = 1 | 1008.55 | 1.523
